# Assay results from US11702404B2, “GLP-1R modulating compounds” (priority 2019, dated 2023).
# Read-outs that look alike come from different tables or passages of the source.
# Experiments:
# [1] = Microsomal stability, human liver microsomes (predicted hepatic clearance); settings: predicted from in vitro microsomal stability data
# [2] = biological target: GLP-1R (Homo sapiens, UniProt P43220); experiment: GLP-1R activation: cAMP increase in CHO cells stably expressing GLP-1R; format: cell-based
# GLP-1R, sequence (P43220 24-463): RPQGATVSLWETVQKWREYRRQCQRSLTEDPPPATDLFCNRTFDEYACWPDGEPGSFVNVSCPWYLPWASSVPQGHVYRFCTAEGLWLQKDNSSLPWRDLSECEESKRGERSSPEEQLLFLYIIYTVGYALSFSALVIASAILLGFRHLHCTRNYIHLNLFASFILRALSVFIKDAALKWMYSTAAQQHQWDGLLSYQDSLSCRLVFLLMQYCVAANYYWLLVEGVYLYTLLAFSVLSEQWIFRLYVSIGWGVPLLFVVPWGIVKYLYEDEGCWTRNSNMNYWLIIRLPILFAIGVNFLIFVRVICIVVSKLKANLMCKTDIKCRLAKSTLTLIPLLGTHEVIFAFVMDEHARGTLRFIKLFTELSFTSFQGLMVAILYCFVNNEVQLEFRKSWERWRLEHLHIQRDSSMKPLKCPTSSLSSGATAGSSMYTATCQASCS
# [3] = cAMP increase, CHO cells stably expressing GLP-1R, 10 point dose response, 30 minutes incubation, read-out: EC50
SMILES,Predicted Hepatic Clearance (Pred. Cl.) [1] [mL/min/kg],"EC50 [2, 3] [nM]",EC50 ([2]; read-out: EC50) [nM],EC50 ([2]; EC50 (nM)) [nM]
"N#Cc1ccc(COc2cccc(-c3ccc(Cc4nc5c(F)cc(C(=O)O)cc5n4Cc4ccon4)c(F)c3)n2)c(F)c1 [Example 585, 2-(4-(6-((4-cyano-2-fluorobenzyl)oxy)pyridin-2-yl)-2-fluorobenzyl)-4-fluoro-1-(isoxazol-3-ylmethyl)-1H-benzo[d]imidazole-6-carboxylic acid]",2.33,0.81,,
"COC(C)(C)Cn1c(Cc2cc(F)c(-c3cccc(OCc4ccc(C#N)cc4F)n3)cc2F)nc2ccc(C(=O)O)cc21 [Example 586, 2-(4-(6-((4-cyano-2-fluorobenzyl)oxy)pyridin-2-yl)-2,5-difluorobenzyl)-1-(2-methoxy-2-methylpropyl)-1H-benzo[d]imidazole-6-carboxylic acid]",7.67,0.54,,
"CO[C@@H](C)Cn1c(Cc2cc(F)c(-c3cccc(OCc4ccc(C#N)cc4F)n3)cc2F)nc2ccc(C(=O)O)cc21 [Example 587, (S)-2-(4-(6-((4-cyano-2-fluorobenzyl)oxy)pyridin-2-yl)-2,5-difluorobenzyl)-1-(2-methoxypropyl)-1H-benzo[d]imidazole-6-carboxylic acid]",6.83,2.15,,
"CO[C@H](C)Cn1c(Cc2cc(F)c(-c3cccc(OCc4ccc(C#N)cc4F)n3)cc2F)nc2ccc(C(=O)O)cc21 [Example 588, (R)-2-(4-(6-((4-cyano-2-fluorobenzyl)oxy)pyridin-2-yl)-2,5-difluorobenzyl)-1-(2-methoxypropyl)-1H-benzo[d]imidazole-6-carboxylic acid]",6.5,1.33,,
"COC(=O)N1CCC[C@@H]1Cn1c(Cc2cc(F)c(-c3cccc(OCc4ccc(C#N)cc4F)n3)cc2F)nc2ccc(C(=O)O)cc21 [Example 589, (R)-2-(4-(6-((4-cyano-2-fluorobenzyl)oxy)pyridin-2-yl)-2,5-difluorobenzyl)-1-((1-(methoxycarbonyl)pyrrolidin-2-yl)methyl)-1H-benzo[d]imidazole-6-carboxylic acid]",8.17,,5.46,
"CC(=O)N1CCC[C@@H]1Cn1c(Cc2cc(F)c(-c3cccc(OCc4ccc(C#N)cc4F)n3)cc2F)nc2ccc(C(=O)O)cc21 [Example 591, (R)-1-((1-acetylpyrrolidin-2-yl)methyl)-2-(4-(6-((4-cyano-2-fluorobenzyl)oxy)pyridin-2-yl)-2,5-difluorobenzyl)-1H-benzo[d]imidazole-6-carboxylic acid]",7,,0.17,
"COCCn1c(Cc2ccc(-c3cccc(OCc4ncc(Cl)s4)n3)cc2F)nc2ccc(C(=O)O)cc21 [Example 592, 2-(4-(6-((5-chlorothiazol-2-yl)methoxy)pyridin-2-yl)-2-fluorobenzyl)-1-(2-methoxyethyl)-1H-benzo[d]imidazole-6-carboxylic acid]",12,33.3,,
"COCCn1c(Cc2ccc(-c3cccc(OCc4cnc(Cl)s4)n3)cc2F)nc2ccc(C(=O)O)cc21 [Example 593, 2-(4-(6-((2-chlorothiazol-5-yl)methoxy)pyridin-2-yl)-2-fluorobenzyl)-1-(2-methoxyethyl)-1H-benzo[d]imidazole-6-carboxylic acid]",8.3,145,,
"N#Cc1ccc(COc2cccc(-c3cc(F)c(Cc4nc5ccc(C(=O)O)cc5n4Cc4ccon4)c(F)c3)n2)c(F)c1 [Example 594, 2-(4-(6-((4-cyano-2-fluorobenzyl)oxy)pyridin-2-yl)-2,6-difluorobenzyl)-1-(isoxazol-3-ylmethyl)-1H-benzo[d]imidazole-6-carboxylic acid]",4.33,0.77,,
"COCCn1c(Cc2ccc(-c3cccc(OCc4cccnc4[N+](=O)[O-])n3)cc2F)nc2ccc(C(=O)O)cc21 [Example 596, 2-(2-fluoro-4-(6-((2-nitropyridin-3-yl)methoxy)pyridin-2-yl)benzyl)-1-(2-methoxyethyl)-1H-benzo[d]imidazole-6-carboxylic acid]",19.5,816,,
"N#CCC1(Cn2c(Cc3ccc(-c4ccc(F)c(OCc5ccc(C#N)cc5F)n4)cc3F)nc3c(F)cc(C(N)=O)cc32)CC1 [Example 597, 2-(4-(6-((4-cyano-2-fluorobenzyl)oxy)-5-fluoropyridin-2-yl)-2-fluorobenzyl)-1-((1-(cyanomethyl)cyclopropyl)methyl)-4-fluoro-1H-benzo[d]imidazole-6-carboxamide]",9.83,13.8,,
"COc1cc(C#N)ccc1COc1cccc(-c2cc(F)c(Cc3nc4ccc(C(N)=O)cc4n3CC3(CC#N)CC3)cc2F)n1 [Example 598, 2-(4-(6-((4-cyano-2-methoxybenzyl)oxy)pyridin-2-yl)-2,5-difluorobenzyl)-1-((1-(cyanomethyl)cyclopropyl)methyl)-1H-benzo[d]imidazole-6-carboxamide]",19.2,0.28,,
"N#CCC1(Cn2c(Cc3cc(F)c(-c4ccnc(OCc5ccc(C#N)cc5F)n4)cc3F)nc3ccc(C(N)=O)nc32)CC1 [Example 599, 2-(4-(2-((4-cyano-2-fluorobenzyl)oxy)pyrimidin-4-yl)-2,5-difluorobenzyl)-3-((1-(cyanomethyl)cyclopropyl)methyl)-3H-imidazo[4,5-b]pyridine-5-carboxamide]",12.3,0.98,,
"N#CCC1(Cn2c(Cc3ccc(-c4cccc(OCc5ccc(C#N)cc5F)n4)cc3F)nc3ccc(C(=O)O)nc32)CC1 [Example 600, 2-(4-(6-((4-cyano-2-fluorobenzyl)oxy)pyridin-2-yl)-2-fluorobenzyl)-3-((1-(cyanomethyl)cyclopropyl)methyl)-3H-imidazo[4,5-b]pyridine-5-carboxylic acid]",6.7,0.1,,
"N#Cc1ccc(COc2cccc(-c3ccc(Cc4nc5ccc(C(=O)O)cc5n4Cc4ncco4)nc3)n2)c(F)c1 [Example 601, 2-((6-((4-cyano-2-fluorobenzyl)oxy)-[2,3′-bipyridin]-6′-yl)methyl)-1-(oxazol-2-ylmethyl)-1H-benzo[d]imidazole-6-carboxylic acid]",3.83,31.7,,
"COCCn1c(Cc2cc(F)c(-c3cccc(OCc4ccc(Cl)cc4)n3)cc2F)nc2ccc(C(=O)O)cc21 [Example 602, 2-(4-(6-((4-chlorobenzyl)oxy)pyridin-2-yl)-2,5-difluorobenzyl)-1-(2-methoxyethyl)-1H-benzo[d]imidazole-6-carboxylic acid]",2.83,1.17,,
"COCCn1c(Cc2cc(F)c(-c3cccc(OCc4ccc(C#N)c(F)c4)n3)cc2F)nc2ccc(C(=O)O)cc21 [Example 603, 2-(4-(6-((4-cyano-3-fluorobenzyl)oxy)pyridin-2-yl)-2,5-difluorobenzyl)-1-(2-methoxyethyl)-1H-benzo[d]imidazole-6-carboxylic acid]",2.83,,,4.13
"COCCn1c(Cc2cc(F)c(-c3cccc(OCc4ccc(C#N)cc4)n3)cc2F)nc2ccc(C(=O)O)cc21 [Example 604, 2-(4-(6-((4-cyanobenzyl)oxy)pyridin-2-yl)-2,5-difluorobenzyl)-1-(2-methoxyethyl)-1H-benzo[d]imidazole-6-carboxylic acid]",4.5,0.92,,
"N#Cc1ccc(COc2cccc(-c3cc(F)c(Cc4nc5ccc(C(=O)O)cc5n4Cc4ncco4)cc3F)n2)c(F)c1 [Example 605, 2-(4-(6-((4-cyano-2-fluorobenzyl)oxy)pyridin-2-yl)-2,5-difluorobenzyl)-1-(oxazol-2-ylmethyl)-1H-benzo[d]imidazole-6-carboxylic acid]",5,1.57,,
Cc1cc(Cn2c(Cc3ccc(-c4cccc(OCc5ccc(C#N)cc5F)n4)cc3F)nc3ccc(C(=O)O)cc32)no1 [Example 606],1.83,178,,
Cn1ccnc1Cn1c(Cc2ccc(-c3cccc(OCc4ccc(C#N)cc4F)n3)cc2F)nc2ccc(C(=O)O)cc21 [Example 607],3,108,,
O=C(O)c1ccc2nc(Cc3cc(F)c(-c4cccc(OCc5ccc(C(F)F)cc5F)n4)cc3F)n(Cc3ncco3)c2c1 [Example 608],1.83,0.74,,
O=C(O)c1ccc2nc(Cc3cc(F)c(-c4cccc(OCc5ccc(C(F)F)cc5F)n4)cc3F)n(Cc3ccon3)c2c1 [Example 609],1.83,0.15,,
N#Cc1ccc(COc2cccc(-c3cc(F)c(Cc4nc5ccc(C(=O)O)cc5n4[C@H]4COC[C@H]4F)cc3F)n2)c(F)c1 [Example 611],4.83,0.29,,
N#Cc1ccc(COc2cccc(-c3cc(F)c(Cc4nc5ccc(C(=O)O)cc5n4C4COCC4(F)F)cc3F)n2)c(F)c1 (stereo not shown) [Example 612],3.83,0.22,,
N#Cc1ccc(COc2cccc(-c3cc(F)c(Cc4nc5ccc(C(=O)O)cc5n4[C@H]4COC[C@H]4O)cc3F)n2)c(F)c1 [Example 613],6.5,0.54,,
N#Cc1ccc(COc2cccc(-c3cc(F)c(Cc4nc5ccc(C(=O)O)cc5n4[C@@H]4COC[C@@H]4O)cc3F)n2)c(F)c1 [Example 614],1.83,0.79,,
Cc1nc(Cn2c(Cc3cc(F)c(-c4cccc(OCc5ccc(C#N)cc5F)n4)cc3F)nc3ccc(C(=O)O)cc32)oc1C [Example 615],2.33,1420,,
Cc1cnc(Cn2c(Cc3cc(F)c(-c4cccc(OCc5ccc(C#N)cc5F)n4)cc3F)nc3ccc(C(=O)O)cc32)o1 [Example 616],8.33,26.9,,
